Measured values published in patent US8044204B2, “8-methoxy-9H-isothiazolo[5,4-b]quinoline-3,4-diones and related compounds as anti-infective agents” (Achillion Pharmaceuticals, Inc., priority 2005, dated 2011).

Key:
Format in all cases: cell-based
[1] = test system: E. coli ATCC 25922; test: Minimum Inhibitory Concentration (MIC) assay, E. coli; conditions: Escherichia coli, ATCC25922; broth microdilution; read-out: MIC against E. coli
Protocol: (§1) The antimicrobial activity of the compounds of the invention may be evaluated by a number of methods, including the following visual minimum inhibitory concentration (MIC) assay. This assay determines the minimum concentration of compound required to inhibit growth of a bacterial strain.
(§2) Minimum Inhibitory Concentration (MIC) Assay
(§3) Whole-cell antibacterial activity is determined by broth microdilution using conditions recommended by the NCCLS (see National Committee for Clinical Laboratory Standards. 2001. Performance standards for antimicrobial susceptibility testing: 11th informational supplement. Vol. 21, no. 1, M100-S11. National Committee for Clinical Laboratory Standards, Wayne, Pa.). Test compounds are dissolved in DMSO and diluted 1:50 in Mueller-Hinton II broth (Becton-Dickinson) to produce a 256 μg/ml stock solution. In a 96-well microtiter plate, the compound solution is serially two-fold diluted in Mueller-Hinton II broth. After the compounds are diluted, a 50 μl aliquot of the test organism (˜1×10^6 cfu/mL) is added to each well of the microtiter plate. The final test concentrations ranges from 0.125-128 μg/mL. Inoculated plates are incubated in ambient air at 37° C. for 18 to 24 hours. The organisms selected for testing included laboratory strains S. aureus ATCC 29213 and E. coli ATCC 25922 (strains purchased from American Type Culture Collection, Manassas, Va.), S. aureus FQR700699, and Paeruginosa 27853. The minimum inhibitory concentration (MIC) is determined as the lowest concentration of compound that inhibited visible growth of the test organism.

[2] = test system: S. aureus ATCC 29213; test: Minimum Inhibitory Concentration (MIC) assay, S. aureus; conditions: Staphylococcus aureus, ATCC29213; broth microdilution; read-out: MIC against S. Aureus
Protocol: as §1, §2, §3

[3] = test system: MRSA strain ATCC 700699; test: Minimum Inhibitory Concentration (MIC) assay, Methicillin Resistant S. Aureus; conditions: Staphylococcus aureus; broth microdilution; read-out: MIC against Methicillin Resistant S. Aureus
Source text: It has been unexpectedly discovered that substitution of compounds of Formula I and Formula II with a methoxy substituent at the R8 position increases the anti-microbial activity of the compound against Methicillin resistant Staphylococcus Aureus bacteria while at the same time decreasing the cellular toxicity of the compound. The simultaneous increase in compound activity and decrease in compound toxicity provides a greater therapeutic range for compounds of Formula I and Formula II in which R8 is methoxy; i.e. the range of doses of such compounds that will produce beneficial effects without harmful side effects is increased. […] Therapeutic range is determined using a standard assay of cytotoxicity such as the Alamar blue assay provided in Example 10.
as §1, §2, §3

MIC [1] | MIC [2] | MIC [3] | SMILES
≤ 1 µg/mL | ≤ 1 µg/mL | – | CCn1c2cc(N3CCC(N(C)C)C3)c(F)cc2c(=O)c2c(=O)[nH]sc21 (stereo not shown) [Compound 34, 7-(3-(dimethyl-amino)pyrrolidin-1-yl)-9-ethyl-6-fluoroisothia-zolo[5,4-b]quinoline-3,4(2H,9H)-dione]
≤ 1 µg/mL | ≤ 1 µg/mL | – | CCn1c2cc(NCc3ccncc3)c(F)cc2c(=O)c2c(=O)[nH]sc21 [Compound 35, 9-ethyl-6-fluoro-7-(pyridin-4-ylmethylamino) isothiazolo[5,4-b]quinoline-3,4(2H,9H)-dione]
≤ 1 µg/mL | ≤ 1 µg/mL | – | CCn1c2cc(N3CCN(CCN(C)C)CC3)c(F)cc2c(=O)c2c(=O)[nH]sc21 [Compound 36, 7-(4-(2-(dimethyl-amino)ethyl)piperazin-1-yl)-9-ethyl-6-fluoroisothia-zolo[5,4-b]quinoline-3,4(2H,9H)-dione]
≤ 1 µg/mL | ≤ 1 µg/mL | – | CCn1c2cc(N3CCSCC3)c(F)cc2c(=O)c2c(=O)[nH]sc21 [Compound 37, 9-ethyl-6-fluoro-7-thiomorpho-linoiso-thiazolo[5,4-b]quinoline-3,4(2H,9H)-dione]
≤ 1 µg/mL | ≤ 1 µg/mL | – | O=c1[nH]sc2c1c(=O)c1cc(F)c(N3CCC4(CC3)OCCO4)cc1n2C1CC1 [Compound 39]
≤ 1 µg/mL | ≤ 1 µg/mL | – | O=C1CCN(c2cc3c(cc2F)c(=O)c2c(=O)[nH]sc2n3C2CC2)CC1 [Compound 40, 9-cyclopropyl-6-fluoro-7-(4-oxo-piperidin-1-yl)isothia-zolo[5,4-b]quinoline-3,4(2H,9H)-dione]
≤ 1 µg/mL | ≤ 1 µg/mL | – | O=c1[nH]sc2c1c(=O)c1cc(F)c(N3CCC(O)CC3)cc1n2C1CC1 [Compound 41, 9-cyclopropyl-6-fluoro-7-(4-hydroxy-piperidin-1-yl)isothia-zolo[5,4-b]quinoline-3,4(2H,9H)-dione]
≤ 1 µg/mL | ≤ 1 µg/mL | – | CC(=O)N1CCN(c2cc3c(cc2F)c(=O)c2c(=O)[nH]sc2n3C2CC2)CC1 [Compound 44, 7-(4-acetyl-piperazin-1-yl)-9-cyclo-propyl-6-fluoroiso-thiazolo[5,4-b]quinoline-3,4(2H,9H)-dione]
– | ≤ 1 µg/mL | ≤ 1 µg/mL | CCn1c2s[nH]c(=O)c2c(=O)c2cc(F)c(N3CC[C@@H](C(C)(C)N)C3)c(OC)c21 [Compound 59, (R)-7-(3-(2-aminopropan-2-yl)pyrrolidin-1-yl)-9-ethyl-6-fluoro-8-methoxyiso-thiazolo[5,4-b]quinoline-3,4(2H,9H)-dione]
– | ≤ 1 µg/mL | ≤ 1 µg/mL | COc1c(N2CCC(CN)C2)c(F)cc2c(=O)c3c(=O)[nH]sc3n(C3CC3)c12 (stereo not shown) [Compound 66, 7-(3-(aminomethyl)-pyrrolidin-1-yl)-9-cyclopropyl-6-fluoro-8-methoxyiso-thiazolo[5,4-b]quinoline-3,4(2H,9H)-dione]
≤ 1 µg/mL | ≤ 1 µg/mL | – | COc1c(N2C[C@H]3CCCN[C@H]3C2)ccc2c(=O)c3c(=O)[nH]sc3n(C3CC3)c12 [Compound 78, 9-cyclopropyl-8-methoxy-7-((4aR,7aR)octahydro-pyrrolo[3,4-b]pyridin-6-yl)isothia-zolo[5,4-b]quinoline-3,4(2H,9H)-dione]
≤ 1 µg/mL | ≤ 1 µg/mL | – | CNC(C)(C)[C@@H]1CCN(c2ccc3c(=O)c4c(=O)[nH]sc4n(C4CC4)c3c2OC)C1 [Compound 79, (R)-9-cyclo-propyl-8-methoxy-7-(3-(2-(methyl-amino)propan-2-yl)pyrrolidin-1-yl)isothia-zolo[5,4-b]quinoline-3,4(2H,9H)-dione]
≤ 1 µg/mL | ≤ 1 µg/mL | – | COc1c(N2CC[C@@H](C(C)N(C)C)C2)c(F)cc2c(=O)c3c(=O)[nH]sc3n(C3CC3)c12 (stereo partly drawn) [Compound 81, (R)-9-cyclo-propyl-7-(3-(1-(di-methylamino)ethyl)pyrrolidin-1-yl)-6-fluoro-8-methoxyiso-thiazolo[5,4-b]quinoline-3,4(2H,9H)-dione]
≤ 1 µg/mL | ≤ 1 µg/mL | – | COc1c(N2CC[C@@H](C(C)(C)N(C)C)C2)c(F)cc2c(=O)c3c(=O)[nH]sc3n(C3CC3)c12 [Compound 82, (R)-9-cyclo-propyl-7-(3-(2-(dimethyl-amino)propan-2-yl)pyrrolidin-1-yl)-6-fluoro-8-methoxyiso-thiazolo[5,4-b]quinoline-3,4(2H,9H)-dione]
≤ 1 µg/mL | ≤ 1 µg/mL | – | COc1cc2c(=O)c3c(=O)[nH]sc3n(C3CC3)c2c(F)c1N1CC[C@@H](C(C)(C)N)C1 [Compound 83, (R)-7-(3-(2-aminopropan-2-yl)pyrrolidin-1-yl)-9-cyclopropyl-8-fluoro-6-methoxyiso-thiazolo[5,4-b]quinoline-3,4(2H,9H)-dione]
≤ 1 µg/mL | ≤ 1 µg/mL | – | COc1cc2c(=O)c3c(=O)[nH]sc3n(C3CC3)c2c(F)c1N1CC[C@@H](CN)C1 [Compound 85, (S)-7-(3-(aminomethyl)-pyrrolidin-1-yl)-9-cyclo-propyl-8-fluoro-6-methoxyiso-thiazolo[5,4-b]quinoline-3,4(2H,9H)-dione]
≤ 1 µg/mL | ≤ 1 µg/mL | – | COc1c(N2CC[C@@H](CN(C)C)C2)c(F)cc2c(=O)c3c(=O)[nH]sc3n(C3CC3)c12 [Compound 86, (S)-9-cyclo-propyl-7-(3-((dimethyl-amino)methyl)pyrrolidin-1-yl)-6-fluoro-8-methoxyiso-thiazolo[5,4-b]quinoline-3,4(2H,9H)-dione]
≤ 1 µg/mL | ≤ 1 µg/mL | – | COc1c(N2CC[C@H](CN)C2)ccc2c(=O)c3c(=O)[nH]sc3n(C3CC3)c12 [Compound 90, (R)-7-(3-(aminomethyl)-pyrrolidin-1-yl)-9-cyclopropyl-8-methoxyiso-thiazolo[5,4-b]quinoline-3,4(2H,9H)-dione]
– | ≤ 1 µg/mL | ≤ 1 µg/mL | CC[C@@H](NC)[C@@H]1CCN(c2c(F)cc3c(=O)c4c(=O)[nH]sc4n(C4CC4)c3c2OC)C1 [Compound 92, 9-cyclopropyl-6-fluoro-8-methoxy-7-((R)-3-((R)-1-(methylamino)-propyl)pyrrolidin-1-yl)isothia-zolo[5,4-b]quinoline-3,4(2H,9H)-dione]
≤ 1 µg/mL | ≤ 1 µg/mL | – | COc1c(N2CC[C@@H](CNC3CC3)C2)ccc2c(=O)c3c(=O)[nH]sc3n(C3CC3)c12 [Compound 101, (S)-9-cyclo-propyl-7-(3-((cyclopropyl-amino)methyl)-pyrrolidin-1-yl)-8-methoxyiso-thiazolo[5,4-b]quinoline-3,4(2H,9H)-dione]
≤ 1 µg/mL | ≤ 1 µg/mL | – | COc1c(N2CC(N)C2)c(F)cc2c(=O)c3c(=O)[nH]sc3n(C3CC3)c12 [Compound 105, 7-(3-amino-azetidin-1-yl)-9-cyclopropyl-6-fluoro-8-methoxyiso-thiazolo[5,4-b]quinoline-3,4(2H,9H)-dione]
≤ 1 µg/mL | ≤ 1 µg/mL | – | CCNC1CN(c2c(F)cc3c(=O)c4c(=O)[nH]sc4n(C4CC4)c3c2OC)C1 [Compound 106, 9-cyclopropyl-7-(3-(ethylamino)-azetidin-1-yl)-6-fluoro-8-methoxyiso-thiazolo[5,4-b]quinoline-3,4(2H,9H)-dione]
– | ≤ 1 µg/mL | ≤ 1 µg/mL | CN[C@H](C)[C@@H]1CCN(c2c(F)cc3c(=O)c4c(=O)[nH]sc4n(C4CC4)c3c2OC)C1 [Compound 107, 9-cyclopropyl-6-fluoro-8-methoxy-7-((R)-3-((R)-1-(methyl-amino)ethyl)pyrrolidin-1-yl)isothia-zolo[5,4-b]quinoline-3,4(2H,9H)-dione]
– | ≤ 1 µg/mL | ≤ 1 µg/mL | CN[C@@H](C)[C@@H]1CCN(c2c(F)cc3c(=O)c4c(=O)[nH]sc4n(C4CC4)c3c2OC)C1 [Compound 108, 9-cyclopropyl-6-fluoro-8-methoxy-7-((R)-3-((S)-1-(methylamino)-ethyl)pyrrolidin-1-yl)isothia-zolo[5,4-b]quinoline-3,4(2H,9H)-dione]
– | ≤ 1 µg/mL | ≤ 1 µg/mL | COc1c(N2CC[C@@H]([C@H](C)N)C2)ccc2c(=O)c3c(=O)[nH]sc3n(C3CC3)c12 [Compound 111, 7-((R)-3-((S)-1-aminoethyl)-pyrrolidin-1-yl)-9-cyclo-propyl-8-methoxyiso-thiazolo[5,4-b]quinoline-3,4(2H,9H)-dione]
– | ≤ 1 µg/mL | ≤ 1 µg/mL | COc1c(N2CC[C@@H](C(C)NC(C)C)C2)c(F)cc2c(=O)c3c(=O)[nH]sc3n(C3CC3)c12 (stereo partly drawn) [Compound 112, (R)-9-cyclo-propyl-6-fluoro-7-(3-(1-(isopropyl-amino)ethyl)pyrrolidin-1-yl)-8-methoxyiso-thiazolo[5,4-b]quinoline-3,4(2H,9H)-dione]
